Source: ChEMBL document CHEMBL5325500, “Mannich Base PIP-199 Is a Chemically Unstable Pan-Assay Interference Compound” (J Med Chem, 2023)
Blank lines part the entries; values can stand above or below the compound they belong to. Activity calls are given as the source filed them. No cut-off for these calls is given here.

Tests used:
[1] = Stability in potassium phosphate buffer at pH 6 to 8 assessed as drug degradation at 250 uM measured after 1.5 hrs by 1H-NMR analysis; format: physicochemical; conditions: pH 6, 1.5 h
[2] = Stability of compound in H2O/MeCN with 0.1% formic acid assessed as elimination of piperazine at 250 uM measured after 1.5 hrs by LC-MS analysis; format: physicochemical
[3] = Stability of compound in H2O/MeCN with 0.1% formic acid assessed as formation of 2-phenyl-3-(pyridin-2-ylmethylene)-3H-indole 1-oxide by measuring retention time at 250 uM measured after 1.5 hrs by LC-MS analysis; format: physicochemical
[4] = Stability of compound in H2O/MeCN with 0.1% formic acid assessed as formation of 2-phenyl-3-(pyridin-2-ylmethylene)indoline-1,2-diol by measuring retention time at 250 uM measured after 1.5 hrs by LC-MS analysis; format: physicochemical
[5] = Stability of compound in H2O/MeCN with 0.1% formic acid assessed as isomer of nitrone formation by measuring retention time at 250 uM measured after 1.5 hrs by LC-MS analysis; format: physicochemical
[6] = Stability of compound in phosphate buffer at pH 7 to 8 assessed as formation of 2-phenyl-3-(pyridin-2-ylmethylene)-3H-indole 1-oxide at 50 uM measured every 0.1 secs for 3 mins by UV-Vis spectroscopy; format: physicochemical; conditions: pH 7, 2.778e-05 h, time 0.1 sec
[7] = Stability of compound in 50 mM phosphate buffer at pH 6 to 8 assessed as drug decomposition at 250 uM measured after 1.5 hrs by NMR analysis; format: physicochemical; conditions: pH 6, 1.5 h
[8] = Stability of compound in 10 mM Tris buffer at pH 8.8 assessed as drug decomposition at 250 uM measured after 1.5 hrs by NMR analysis; format: physicochemical; conditions: pH 8.8, 1.5 h
[9] = Stability of compound in 10 to 50 mM HEPES buffer at pH 7.4 assessed as drug decomposition at 250 uM measured after 1.5 hrs by NMR analysis; format: physicochemical; conditions: pH 7.4, 1.5 h
[10] = Stability of compound in 50 mM Tris buffer at pH 8.8 assessed as drug decomposition at 250 uM measured after 1.5 hrs by NMR analysis; format: physicochemical; conditions: pH 8.8, 1.5 h
[11] = Stability of compound in 10 to 50 mM NH4Cl buffer at pH 8.8 assessed as drug decomposition at 250 uM measured after 1.5 hrs by NMR analysis; format: physicochemical; conditions: pH 8.8, 1.5 h
Homo sapiens [12] = species on record: Homo sapiens; test: Binding affinity to biotinylated RMI1/RMI2 (unknown origin) at 12.5 to 200 uM associated for 60 secs and dissociated for 60 secs by SPR analysis; conditions: dose 12.5-200 µM, time 120.0 sec
Homo sapiens [13] = species on record: Homo sapiens; test: Displacement of N-terminal TAMRA-labeled SRDLFSVTFDLGFCSPDSDD-NH2 tracer from RMI1/RMI2 (unknown origin) in 10 mM Tris buffer pH 8.8 at 125 uM incubated for 1 hr by fluorescence polarization assay
Homo sapiens [14] = species on record: Homo sapiens; test: Displacement of N-terminal TAMRA-labeled SRDLFSVTFDLGFCSPDSDD-NH2 tracer from RMI1/RMI2 (unknown origin) in 50 mM Tris buffer pH 8.8 at 125 uM incubated for 1 hr by fluorescence polarization assay
[15] = Solubility of compound assessed as precipitation at >250 uM; format: physicochemical
[16] = Stability in phosphate buffer at pH 7 to 8 assessed as drug degradation at 250 uM measured after 1.5 hrs by 1H-NMR analysis; format: physicochemical; conditions: pH 7, 1.5 h
[17] = Stability in phosphate buffer at pH 6 assessed as drug degradation at 250 uM measured after 1.5 hrs by 1H-NMR analysis; format: physicochemical; conditions: read-out: Drug degradation
[18] = Stability of compound in H2O/MeCN with 0.1% formic acid assessed as (2-phenyl-1H-indol-3-yl)(pyridin-2-yl)methanol formation by measuring retention time at 250 uM measured after 1.5 hrs by LC-MS analysis; format: physicochemical
[19] = Stability of compound in H2O/MeCN with 0.1% formic acid assessed as retention time of intact compound at 250 uM measured after 1.5 hrs by LC-MS analysis; format: physicochemical

Stability [1]: Unstable
Stability [2]: Unstable
Retention_time [3]: 11.4 min
Retention_time [4]: 8.2 min
Retention_time [5]: 9.5 min
Stability [6]: Unstable
Stability [7]: Unstable
Stability [8]: Unstable
Stability [9]: Unstable
Stability [10]: Stable
Stability [11]: Unstable
Activity (Homo sapiens [12]): inactive
Activity (Homo sapiens [13]): inactive
Activity (Homo sapiens [14]): inactive
solubility [15]: Insoluble
SMILES: CCOC(=O)N1CCN(C(c2ccccn2)c2c(-c3ccccc3)n(O)c3ccccc23)CC1 (stereo not drawn)

Activity (Homo sapiens [14]): inactive
SMILES: CCOC(=O)N1CCN(C(c2ccccc2)c2c(-c3ccccc3)[nH]c3ccccc23)CC1 (stereo not drawn)

Activity (Homo sapiens [12]): inactive
Activity (Homo sapiens [14]): inactive
SMILES: c1ccc(-c2[nH]c3ccccc3c2C(c2ccccn2)N2CCCCC2)cc1 (stereo not drawn)

Activity (Homo sapiens [12]): inactive
Activity (Homo sapiens [14]): inactive
SMILES: CCOC(=O)N1CCN(C(c2ccccn2)c2c(C)[nH]c3ccccc23)CC1 (stereo not drawn)

Stability [16]: Stable
degraded at 1.5 h, 250 µM [17]: 50%
Retention_time [18]: 7.3 min
Activity (Homo sapiens [12]): inactive
Retention_time [19]: 8.7 min
Activity (Homo sapiens [14]): inactive
SMILES: CCOC(=O)N1CCN(C(c2ccccn2)c2c(-c3ccccc3)[nH]c3ccccc23)CC1 (stereo not drawn)

Activity (Homo sapiens [12]): inactive
Activity (Homo sapiens [14]): inactive
SMILES: CCOC(=O)N1CCN(C(c2ccccn2)c2ccc3ccccc3c2O)CC1 (stereo not drawn)
